Measurements published in patent US10077247B2, “Tricyclic spiro compound” (ONO PHARMACEUTICAL CO., LTD., priority 2015, dated 2018).

Key:
[1] = Pharmacokinetics test (hepatic microsome stability test); conditions: human hepatic microsome 1 mg/mL, 37° C., 60 min, 1 μmol/L
rat EP4 receptor = rat EP4 receptor (Rattus norvegicus (Rat), UniProt P43114); assay: EP4 antagonistic activity measurement using prostanoid receptor subtype expressing cells (cAMP); format: cell-based; conditions: CHO cells expressing rat EP4 receptor; inhibition of cAMP production by PGE2 10 nM
Procedure: CHO cells expressing rat EP4 receptor subtypes were prepared according to the methods of Nishigaki et al. (FEBS Letters, Vol. 364, p. 339-341, 1995), and used for experiment. Cultured subconfluent cells were detached, and suspended in an assay medium (MEM containing 1 mmol/L IBMX, 1% HSA) in a concentration of 1×10^6 cells/mL. For reaction, PGE2 was added to the cell suspension (25 μL) in a final concentration of 10 nmol/L, either alone or as a 25-μL PGE2 solution containing the test compound. After 30 minutes of reaction at room temperature, the amount of cAMP in the cells was quantified according to the method in the descriptions of the cAMP assay kit (CISBIO).
The antagonistic effect (IC50 value) of the test compound was calculated as a value that represents an inhibition rate against a reaction with PGE2 alone at 10 nM, a concentration that produces a submaximal cAMP producing effect.

rat EP4 receptor, sequence (P43114 whole entry): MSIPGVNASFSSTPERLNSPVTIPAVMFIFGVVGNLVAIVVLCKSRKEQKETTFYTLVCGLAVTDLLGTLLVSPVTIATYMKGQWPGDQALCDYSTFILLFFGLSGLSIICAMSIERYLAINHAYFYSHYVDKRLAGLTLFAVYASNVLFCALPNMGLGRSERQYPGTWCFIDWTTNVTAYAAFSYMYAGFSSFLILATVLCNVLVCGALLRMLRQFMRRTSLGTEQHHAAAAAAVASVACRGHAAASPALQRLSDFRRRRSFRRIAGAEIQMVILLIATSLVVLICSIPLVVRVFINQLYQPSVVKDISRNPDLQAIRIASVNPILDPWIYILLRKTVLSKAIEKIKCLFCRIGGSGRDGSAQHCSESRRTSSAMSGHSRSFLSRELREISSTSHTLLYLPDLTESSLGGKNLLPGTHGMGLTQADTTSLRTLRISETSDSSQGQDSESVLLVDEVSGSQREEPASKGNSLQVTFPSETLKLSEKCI

Row | Remaining rate (%) [1] [%] | IC50 (rat EP4 receptor) [nM] | SMILES
1 | 87 | 5.7 | N#Cc1ccc(CCCC(=O)O)c(NC(=O)[C@@H]2C[C@]23CCOc2ccc(-c4ncco4)cc23)c1 [Example 10-3, 4-[4-Cyano-2-({[(2′R,4S)-6-(1,3-oxazol-2-yl)-2,3-dihydrospiro[chromene-4,1′-cyclopropan]-2′-yl]carbonyl}amino)phenyl]butanoic acid]
2 | 73 | 3.5 | Cn1cc(-c2ccc3c(c2)[C@]2(CCO3)C[C@H]2C(=O)Nc2cc(C#N)ccc2CCCC(=O)O)nn1 [Example 10-4, 4-[4-Cyano-2-({[(2′R,4S)-6-(1-methyl-1H-1,2,3-triazol-4-yl)-2,3-dihydrospiro[chromene-4,1′-cyclopropan]-2′-yl]carbonyl}amino)phenyl]butanoic acid]
3 | 86 | 4.1 | N#Cc1ccc(CCCC(=O)O)c(NC(=O)[C@@H]2C[C@]23CCOc2ccc(-c4cccnn4)cc23)c1 [Example 10-5, 4-[4-Cyano-2-({[(2′R,4S)-6-(3-pyridazinyl)-2,3-dihydrospiro[chromene-4, 1′-cyclopropan]-2′-yl]carbonyl}amino)phenyl]butanoic acid]
4 | 75 | 6.7 | N#Cc1ccc(CCCC(=O)O)c(NC(=O)[C@@H]2C[C@]23CCOc2ccc(-c4ccc(F)cn4)cc23)c1 [Example 10-9, 4-[4-Cyano-2-({[(2′R,4S)-6-(5-fluoro-2-pyridinyl)-2,3-dihydrospiro[chromene-4,1′-cyclopropan]-2′-yl]carbonyl}amino)phenyl]butanoic acid]
5 | 90 | 1.2 | CNC(=O)c1ccc2c(c1)[C@]1(CC2)C[C@H]1C(=O)Nc1cc(C#N)ccc1CCCC(=O)O [Example 18-1, 4-[4-Cyano-2-({[(1R,2R)-6′-(methylcarbamoyl)-2′,3′-dihydrospiro[cyclopropane-1, 1′-inden]-2-yl]carbonyl}amino)phenyl]butanoic acid]
6 | 100 | 3 | COCCNC(=O)c1ccc2c(c1)[C@]1(CC2)C[C@H]1C(=O)Nc1cc(C#N)ccc1CCCC(=O)O [Example 18-2, 4-{4-Cyano-2-[({(1R,2R)-6′-[(2-methoxyethyl)carbamoyl]-2′,3′-dihydrospiro[cyclopropane-1,1′-inden]-2-yl}carbonyl)amino]phenyl}butanoic acid]
7 | 91 | 2.7 | Cn1cc(NC(=O)c2ccc3c(c2)[C@]2(CC3)C[C@H]2C(=O)Nc2cc(C#N)ccc2CCCC(=O)O)cn1 [Example 18-3, 4-{4-Cyano-2-[({(1R,2R)-6′-[(1-methyl-1H-pyrazol-4-yl)carbamoyl]-2′,3′-dihydrospiro[cyclopropane-1,1′-inden]-2-yl}carbonyl)amino]phenyl}butanoic acid]
8 | 88 | 8.5 | CNC(=O)c1cc2c(cc1F)OCC[C@]21C[C@H]1C(=O)Nc1cc(C#N)ccc1CCCC(=O)O [Example 20-1]
9 | 77 | 1.6 | COCCNC(=O)c1cc2c(cc1F)OCC[C@]21C[C@H]1C(=O)Nc1cc(C#N)ccc1CCCC(=O)O [Example 20-2, 4-{4-Cyano-2-[({(2′R,4S)-7-fluoro-6-[(2-methoxyethyl)carbamoyl]-2,3-dihydrospiro[chromene-4,1′-cyclopropan]-2′-yl}carbonyl)amino]phenyl}butanoic acid]
10 | 100 | 9.5 | CC(C)NC(=O)c1cc2c(cc1F)OCC[C@]21C[C@H]1C(=O)Nc1cc(C#N)ccc1CCCC(=O)O [Example 20-5, 4-[4-Cyano-2-({[(2′R,4S)-7-fluoro-6-(isopropylcarbamoyl)-2,3-dihydrospiro[chromene-4, 1′-cyclopropan]-2′-yl]carbonyl}amino)phenyl]butanoic acid]
11 | 91 | 6.4 | CNC(=O)c1ccc2c(c1)OCC[C@]21C[C@H]1C(=O)Nc1cc(C#N)ccc1CCCC(=O)O [Example 28-1, 4-[4-Cyano-2-({[(2′R,4S)-7-(methylcarbamoyl)-2,3-dihydrospiro[chromene-4,1′-cyclopropan]-2′-yl]carbonyl}amino)phenyl]butanoic acid]

The next lines start with the molecule.

Row | SMILES | Remaining rate (%) [1] [%] | IC50 (rat EP4 receptor) [nM]
12 | N#Cc1ccc(CCCC(=O)O)c(NC(=O)[C@@H]2C[C@]23CCOc2ccc(-c4cccnc4)cc23)c1 [Example 7-3, 4-[4-Cyano-2-({[(2′R,4S)-6-(3-pyridinyl)-2,3-dihydrospiro[chromene-4,1′-cyclopropan]-2′-yl]carbonyl}amino)phenyl]butanoic acid] | 72 | 3.8
13 | N#Cc1ccc(CCCC(=O)O)c(NC(=O)[C@@H]2C[C@]23CCOc2ccc(-n4cccn4)cc23)c1 [Example 7-4, 4-[4-Cyano-2-({[(2′R,4S)-6-(1H-pyrazol-1-yl)-2,3-dihydrospiro[chromene-4,1′-cyclopropan]-2′-yl]carbonyl}amino)phenyl]butanoic acid] | 71 | 2.4
14 | N#Cc1ccc(CCCC(=O)O)c(NC(=O)[C@@H]2C[C@]23CCOc2ccc(N4CCCC4=O)cc23)c1 [Example 7-10, 4-[4-Cyano-2-({[(2′R,4S)-6-(2-oxo-1-pyrrolidinyl)-2,3-dihydrospiro[chromene-4,1′-cyclopropan]-2′-yl]carbonyl}amino)phenyl]butanoic acid] | 89 | 8.6
15 | COc1ccc(-c2ccc3c(c2)[C@]2(CCO3)C[C@H]2C(=O)Nc2cc(C#N)ccc2CCCC(=O)O)cn1 [Example 7-13, 4-[4-Cyano-2-({[(2′R,4S)-6-(6-methoxy-3-pyridinyl)-2,3-dihydrospiro[chromene-4, 1′-cyclopropan]-2′-yl]carbonyl}amino)phenyl]butanoic acid] | 95 | 3.5
16 | Cc1ccc(-c2ccc3c(c2)[C@]2(CCO3)C[C@H]2C(=O)Nc2cc(C#N)ccc2CCCC(=O)O)cn1 [Example 7-16, 4-[4-Cyano-2-({[(2′R,4S)-6-(6-methyl-3-pyridinyl)-2,3-dihydrospiro[chromene-4,1′-cyclopropan]-2′-yl]carbonyl}amino)phenyl]butanoic acid] | 80 | 5.7
17 | N#Cc1ccc(CCCC(=O)O)c(NC(=O)[C@@H]2C[C@]23CCOc2ccc(-c4ccc(F)nc4)cc23)c1 [Example 7-17, 4-[4-Cyano-2-({[(2′R,4S)-6-(6-fluoro-3-pyridinyl)-2,3-dihydrospiro[chromene-4, 1′-cyclopropan]-2′-yl]carbonyl}amino)phenyl]butanoic acid] | 82 | 6.1
18 | N#Cc1ccc(CCCC(=O)O)c(NC(=O)[C@@H]2C[C@]23CCOc2ccc(-c4cnc5[nH]ccc5c4)cc23)c1 [Example 7-19, 4-[4-Cyano-2-({[(2′R,4S)-6-(1H-pyrrolo[2,3-b]pyridin-5-yl)-2,3-dihydrospiro[chromene-4,1′-cyclopropan]-2′-yl]carbonyl}amino)phenyl]butanoic acid] | 100 | 4.5
19 | CNc1ccc(-c2ccc3c(c2)[C@]2(CCO3)C[C@H]2C(=O)Nc2cc(C#N)ccc2CCCC(=O)O)cn1 [Example 7-21, 4-{4-Cyano-2-[({(2′R,4S)-6-[6-(methylamino)-3-pyridinyl]-2,3-dihydrospiro[chromene-4,1′-cyclopropan]-2′-yl}carbonyl)amino]phenyl}butanoic acid] | 76 | 10
